{"source": "patent US8142714B2", "about": "“Cleaning and disinfection of surgical and medical instruments and appliances” (Chemische Fabrik Dr. Weigert GmbH & Co. KG, priority 2002, dated 2012)", "key": {"[1]": {"test": "Surface tension as specified in DIN 53993", "assay_type": "physicochemical", "details": "NaOH in deionized water, cleaner 1% by volume in Hamburg city water", "protocol": "The cleaning solution diluted in ready-to-use form preferably has a surface tension of less than 50 mN/m, preferably less than 40 mN/m, further preferably less than 35 mN/m, further preferably less than 30 mN/m. The surface tension is determined by the plate-ring method as specified in DIN 53993.\nThe surface tension was determined as specified in DIN 53993 for the following liquids: […]"}, "[2]": {"test": "Cleaning of roughened microscope slides dirtied with blood-egg yolk mixture, immersion bath", "details": "50 mg blood-egg yolk mixture dried at 55° C. for 2 h; stirred immersion bath 10 min at room temperature; cleaner 1% strength by volume", "protocol": "Roughened microscope slides are dirtied with 50 mg of a blood-egg yolk mixture, dried at 55° C. for 2 h and then immersed in a stirred bath for 10 min at room temperature. The medium used for the immersion bath is deionized water, 0.1 N NaOH or a 1% strength by volume cleaning solution of the cleaning composition concentrate according to example 1. The residual amount of fouling then determined is 20% by weight for water, 35% by weight for 0.1 N NaOH and less than 5% by weight for the cleaner, as immersion bath medium used."}}}
{"smiles": "[Na+].[OH-]", "note": "[0.1 N NaOH, NaOH]", "values": [{"measurement": "surface tension", "setting": "[1]", "value": 72, "unit": "mN/m"}, {"measurement": "residual amount of fouling", "setting": "[2]", "value": 35, "unit": "% by weight"}]}
